Measurements: ChEMBL document CHEMBL4831516, “Development of Membrane-Active Honokiol/Magnolol Amphiphiles as Potent Antibacterial Agents against Methicillin-Resistant Staphylococcus aureus (MRSA)” (J Med Chem, 2021)
Converted amounts (≈) assume the structure as drawn.

How the values were obtained:
Streptococcus mutans = test: Antibacterial activity against Streptococcus mutans; type: functional
Staphylococcus aureus [1] = test: Antibacterial activity against methicillin-resistant Staphylococcus aureus clinical isolate M-17 assessed as inhibition of visible growth incubated for 16 to 18 hrs by CLSI method; type: functional; settings: time 16-18 hrs, read-out: MIC100
Micrococcus luteus = test: Antibacterial activity against Micrococcus luteus assessed as inhibition of visible growth incubated for 16 to 18 hrs by CLSI method; type: functional; settings: time 16-18 hrs, read-out: MIC100
Staphylococcus aureus [2] = test: Antibacterial activity against methicillin-resistant Staphylococcus aureus clinical isolate M-14 assessed as inhibition of visible growth incubated for 16 to 18 hrs by CLSI method; type: functional; settings: time 16-18 hrs, read-out: MIC100
Salmonella enterica [3] = test: Antibacterial activity against Salmonella enterica 349812 assessed as inhibition of visible growth incubated for 16 to 18 hrs by CLSI method; type: functional; settings: time 16-18 hrs, read-out: MIC100
Staphylococcus aureus [4] = test: Antibacterial activity against methicillin-resistant Staphylococcus aureus clinical isolate M-16 assessed as inhibition of visible growth incubated for 16 to 18 hrs by CLSI method; type: functional; settings: time 16-18 hrs, read-out: MIC100
Escherichia coli = test: Antibacterial activity against Escherichia coli ATCC25922 assessed as inhibition of visible growth incubated for 16 to 18 hrs by CLSI method; type: functional; settings: time 16-18 hrs, read-out: MIC100
[5] = Selectivity index, HC50 for hemolytic activity in sheep RBC to MIC for antibacterial activity against Staphylococcus aureus ATCC29213; type: toxicity; settings: sheep red blood cells (erythrocytes), read-out: Selectivity Index
Salmonella enterica [6] = test: Antibacterial activity against Salmonella enterica 8389 assessed as inhibition of visible growth incubated for 16 to 18 hrs by CLSI method; type: functional; settings: time 16-18 hrs, read-out: MIC100
Enterococcus faecalis = test: Antibacterial activity against Enterococcus faecalis ATCC29212 assessed as inhibition of visible growth incubated for 16 to 18 hrs by CLSI method; type: functional; settings: time 16-18 hrs, read-out: MIC100
Staphylococcus aureus [7] = test: Antibacterial activity against methicillin-resistant Staphylococcus aureus clinical isolate M-18 assessed as inhibition of visible growth incubated for 16 to 18 hrs by CLSI method; type: functional; settings: time 16-18 hrs, read-out: MIC100
Staphylococcus aureus [8] = test: Antibacterial activity against methicillin-resistant Staphylococcus aureus clinical isolate M-11 assessed as inhibition of visible growth incubated for 16 to 18 hrs by CLSI method; type: functional; settings: time 16-18 hrs, read-out: MIC100
Staphylococcus aureus [9] = test: Antibacterial activity against methicillin-resistant Staphylococcus aureus clinical isolate M-19 assessed as inhibition of visible growth incubated for 16 to 18 hrs by CLSI method; type: functional; settings: time 16-18 hrs, read-out: MIC100
Staphylococcus aureus [10] = test: Antibacterial activity against methicillin-resistant Staphylococcus aureus clinical isolate M-20 assessed as inhibition of visible growth incubated for 16 to 18 hrs by CLSI method; type: functional; settings: time 16-18 hrs, read-out: MIC100
[11] = Hemolytic activity in sheep RBC assessed as hemolysis incubated for 1 hr; type: ADME, cell-based, Ovis aries, Erythrocyte; settings: sheep red blood cells (erythrocytes)
Staphylococcus aureus [12] = test: Antibacterial activity against methicillin-resistant Staphylococcus aureus clinical isolate M-13 assessed as inhibition of visible growth incubated for 16 to 18 hrs by CLSI method; type: functional; settings: time 16-18 hrs, read-out: MIC100
Staphylococcus aureus [13] = test: Antibacterial activity against Staphylococcus aureus ATCC29213 assessed as inhibition of visible growth incubated for 16 to 18 hrs by CLSI method; type: functional; settings: time 16-18 hrs, read-out: MIC100
Bacillus subtilis = test: Antibacterial activity against Bacillus subtilis assessed as inhibition of visible growth incubated for 16 to 18 hrs by CLSI method; type: functional; settings: time 16-18 hrs, read-out: MIC100
Staphylococcus aureus [14] = test: Antibacterial activity against methicillin-resistant Staphylococcus aureus clinical isolate M-12 assessed as inhibition of visible growth incubated for 16 to 18 hrs by CLSI method; type: functional; settings: time 16-18 hrs, read-out: MIC100
Staphylococcus aureus [15] = test: Antibacterial activity against methicillin-resistant Staphylococcus aureus clinical isolate M-15 assessed as inhibition of visible growth incubated for 16 to 18 hrs by CLSI method; type: functional; settings: time 16-18 hrs, read-out: MIC100
[16] = system: Stenotrophomonas maltophilia; test: Antibacterial activity against Stenotrophomonas maltophilia assessed as inhibition of visible growth incubated for 16 to 18 hrs by CLSI method; type: functional; settings: time 16-18 hrs, read-out: MIC100

| SMILES | MIC (Staphylococcus aureus [1]) | MIC (Micrococcus luteus) | MIC (Staphylococcus aureus [2]) | MIC (Salmonella enterica [3]) | MIC (Staphylococcus aureus [4]) | MIC (Escherichia coli) | selectivity ratio [5] | MIC (Salmonella enterica [6]) | MIC (Enterococcus faecalis) | MIC (Staphylococcus aureus [7]) | MIC (Staphylococcus aureus [8]) | MIC (Staphylococcus aureus [9]) | MIC (Staphylococcus aureus [10]) | HC50 at 1 h [11] | MIC (Staphylococcus aureus [12]) | MIC (Staphylococcus aureus [13]) | MIC (Bacillus subtilis) | MIC (Staphylococcus aureus [14]) | MIC (Staphylococcus aureus [15]) | MIC [16] | further results |
| --- | --- | --- | --- | --- | --- | --- | --- | --- | --- | --- | --- | --- | --- | --- | --- | --- | --- | --- | --- | --- | --- |
| CC(C)(C)c1ccc(CCc2ccc(C(C)(C)C)c(O)c2)cc1O | – | – | – | – | – | – | – | – | – | – | – | – | – | – | – | – | – | – | – | – | MIC (Streptococcus mutans): 8 µg/mL (≈ 24.5 µM) |
| C=CCc1ccc(OCCCC[N+](C)(C)CC(=O)NCCCCC)c(-c2ccc(OCCCC[N+](C)(C)CC(=O)NCCCCC)c(CC=C)c2)c1.[Br-].[Br-] | 2 µg/mL | 2 µg/mL | 2 µg/mL | 8 µg/mL | 2 µg/mL | 16 µg/mL | 112 | 8 µg/mL | 2 µg/mL | 2 µg/mL | 1 µg/mL | 2 µg/mL | 2 µg/mL | 448 µg/mL | 2 µg/mL | 4 µg/mL | 2 µg/mL | 2 µg/mL | 2 µg/mL | 16 µg/mL | – |
| C=CCc1ccc(O)c(-c2cc(CC=C)ccc2OCC[N+](C)(C)CC(=O)NCCCC)c1.[Br-] | 4 µg/mL | 4 µg/mL | 4 µg/mL | 32 µg/mL | 4 µg/mL | 32 µg/mL | 143 | 32 µg/mL | 8 µg/mL | 4 µg/mL | 8 µg/mL | 4 µg/mL | 4 µg/mL | 573 µg/mL | 8 µg/mL | 4 µg/mL | 2 µg/mL | 8 µg/mL | 4 µg/mL | 32 µg/mL | – |
| C=CCc1ccc(OCCCC[N+](C)(C)CC(=O)NCCCC)c(-c2ccc(OCCCC[N+](C)(C)CC(=O)NCCCC)c(CC=C)c2)c1.[Br-].[Br-] | 4 µg/mL | 4 µg/mL | 2 µg/mL | 8 µg/mL | 4 µg/mL | 8 µg/mL | 266 | 16 µg/mL | 1 µg/mL | 4 µg/mL | 2 µg/mL | 4 µg/mL | 2 µg/mL | 531 µg/mL | 2 µg/mL | 2 µg/mL | 2 µg/mL | 2 µg/mL | 4 µg/mL | 8 µg/mL | – |
| C=CCc1ccc(O)c(-c2cc(CC=C)ccc2OCC[N+](C)(C)CC(=O)N(CCCC)CCCC)c1.[Br-] | 2 µg/mL | 2 µg/mL | 4 µg/mL | 16 µg/mL | 2 µg/mL | 8 µg/mL | 393 | 16 µg/mL | 4 µg/mL | 2 µg/mL | 4 µg/mL | 2 µg/mL | 2 µg/mL | 786 µg/mL | 4 µg/mL | 2 µg/mL | 1 µg/mL | 4 µg/mL | 4 µg/mL | 16 µg/mL | – |
| C=CCc1ccc(O)c(-c2cc(CC=C)ccc2OCCCC[N+](C)(C)CC(=O)NCCCCCC)c1.[Br-] | 4 µg/mL | 2 µg/mL | 8 µg/mL | 32 µg/mL | 4 µg/mL | 16 µg/mL | 349 | 64 µg/mL | 4 µg/mL | 4 µg/mL | 8 µg/mL | 8 µg/mL | 4 µg/mL | 698 µg/mL | 8 µg/mL | 2 µg/mL | 1 µg/mL | 8 µg/mL | 8 µg/mL | 32 µg/mL | – |
